Values of other authors, collected in patent publication US20220193065A1, “COMPOSITIONS AND METHODS TO TREAT NON-ALCOHOLIC FATTY LIVER DISEASES (NAFLD)” (Coherus Biosciences, Inc., priority 2019, published 2022).

Settings: monotherapy; background statement

**Q.** With `Cc1cc(F)c(C(=O)Nc2cccc(-c3nncn3C(C)C)n2)cc1-n1cnc(C2CC2)c1` [selonsertib] as the compound, how does the “primary endpoint of the STELLAR-4 phase 3 clinical trial” value read?
**A.** failed to meet the primary endpoint
